Data set [1] deals with T1, Protein cereblon/Tyrosine-protein kinase ITK/TSK (Homo sapiens, UniProt Q08881+Q96SW2). As to the kind of experiment: PROTAC activity at CRBN/ITK in human Jurkat cells assessed as induction of ITK degradation at 100 nM pretreated with 5-amino-2-(2,6-dioxopiperidin-3-yl)isoindoline-1,3-dione for 1 hr followed by compound addition and measured after 2 hrs by Western blot analysis. The data set is classed as cell-based. On the technique in general: A western blot detects proteins with antibodies after separation by electrophoresis.
Target sequence in this assay (Q08881 whole entry, looked up): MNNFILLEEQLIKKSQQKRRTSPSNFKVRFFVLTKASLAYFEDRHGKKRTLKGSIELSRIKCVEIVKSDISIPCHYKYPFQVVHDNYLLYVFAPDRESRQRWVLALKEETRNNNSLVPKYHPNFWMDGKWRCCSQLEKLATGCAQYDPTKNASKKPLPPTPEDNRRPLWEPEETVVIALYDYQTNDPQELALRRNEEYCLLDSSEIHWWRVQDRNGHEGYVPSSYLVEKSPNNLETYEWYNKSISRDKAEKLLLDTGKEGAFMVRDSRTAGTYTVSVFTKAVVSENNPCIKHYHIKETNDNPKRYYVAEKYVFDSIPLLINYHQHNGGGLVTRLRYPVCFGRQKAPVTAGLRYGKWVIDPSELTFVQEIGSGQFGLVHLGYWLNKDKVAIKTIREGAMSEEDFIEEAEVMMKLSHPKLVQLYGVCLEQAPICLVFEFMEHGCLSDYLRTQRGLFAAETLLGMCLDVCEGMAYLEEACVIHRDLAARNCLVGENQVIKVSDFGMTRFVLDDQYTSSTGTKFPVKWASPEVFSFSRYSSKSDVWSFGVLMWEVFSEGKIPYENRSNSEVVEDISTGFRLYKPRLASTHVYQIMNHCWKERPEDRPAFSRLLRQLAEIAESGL
Target sequence in this assay (Q96SW2 whole entry, looked up): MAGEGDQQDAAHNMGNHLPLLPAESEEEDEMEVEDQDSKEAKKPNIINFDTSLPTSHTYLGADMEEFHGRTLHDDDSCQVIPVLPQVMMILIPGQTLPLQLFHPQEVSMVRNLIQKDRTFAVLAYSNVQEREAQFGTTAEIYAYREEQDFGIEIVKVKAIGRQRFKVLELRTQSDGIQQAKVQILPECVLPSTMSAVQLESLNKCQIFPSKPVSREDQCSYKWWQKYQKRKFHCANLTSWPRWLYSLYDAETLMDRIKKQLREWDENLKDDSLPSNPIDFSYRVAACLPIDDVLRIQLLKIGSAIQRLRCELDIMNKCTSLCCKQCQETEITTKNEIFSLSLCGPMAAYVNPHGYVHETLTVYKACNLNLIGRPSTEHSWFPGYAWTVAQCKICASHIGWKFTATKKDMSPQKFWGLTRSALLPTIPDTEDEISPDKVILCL

A short description of data set [2]: Volume of distribution at steady state in Balb/c mouse at 5 mg/kg, iv measured upto 24 hrs by LC-MS/MS analysis. The format is ADME, organism-based. Particulars: in vivo, read-out: Vdss.
A short description of data set [3]: AUC (0 to t) in Balb/c mouse at 5 mg/kg, iv measured upto 24 hrs by LC-MS/MS analysis. Particulars: in vivo. Also on record: dose 5 mg/kg, time < 24 hrs, route iv. The format is ADME, organism-based.
Another data set has as its system Jurkat. Nature of the data set: Induction of degradation of RSK in human Jurkat cells at 0.01 to 10 uM by immunoblotting analysis. Particulars: dose 0.01-10 µM. The format is cell-based.
Data set [4] in a line: Bioavailability in Balb/c mouse at 10 mg/kg, ip measured upto 24 hrs by LC-MS/MS analysis. The format is ADME, organism-based. Particulars: in vivo.
The target of data set [5] is T1, Protein cereblon/Tyrosine-protein kinase ITK/TSK. As to the kind of experiment: PROTAC activity at CRBN/ITK in human MOLT-4 cells assessed as induction of ITK degradation. The format is cell-based.
Target sequence in this assay (Q08881 whole entry): as the sequence (Q08881 whole entry, looked up) above
Target sequence in this assay (Q96SW2 whole entry): as the sequence (Q96SW2 whole entry, looked up) above
Data set [6] has as its target T2, Tyrosine-protein kinase ZAP-70 (Homo sapiens) (UniProt P43403).
T2 sequence (whole entry): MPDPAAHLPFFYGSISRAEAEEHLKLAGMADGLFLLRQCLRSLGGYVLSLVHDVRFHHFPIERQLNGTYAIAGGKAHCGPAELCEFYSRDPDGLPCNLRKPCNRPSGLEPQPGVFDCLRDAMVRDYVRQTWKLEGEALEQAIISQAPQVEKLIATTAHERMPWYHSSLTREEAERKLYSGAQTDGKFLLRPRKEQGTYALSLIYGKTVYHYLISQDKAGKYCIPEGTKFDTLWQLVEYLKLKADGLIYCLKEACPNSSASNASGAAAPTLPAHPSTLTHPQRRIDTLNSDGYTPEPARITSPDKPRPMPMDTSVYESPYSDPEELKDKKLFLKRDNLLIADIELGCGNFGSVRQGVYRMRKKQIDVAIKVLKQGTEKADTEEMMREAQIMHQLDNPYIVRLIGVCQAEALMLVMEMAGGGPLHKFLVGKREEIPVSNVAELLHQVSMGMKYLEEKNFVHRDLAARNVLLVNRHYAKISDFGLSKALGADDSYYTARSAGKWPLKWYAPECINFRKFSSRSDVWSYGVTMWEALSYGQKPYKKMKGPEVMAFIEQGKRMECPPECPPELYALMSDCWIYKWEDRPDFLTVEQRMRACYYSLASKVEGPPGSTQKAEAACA
As to the kind of experiment: Induction of degradation of ZAP-70 in human Jurkat cells at 0.01 to 10 uM by immunoblotting analysis. The format is cell-based. Particulars: dose 0.01-10 µM.

In data set [7] the target is T3, Cytoplasmic tyrosine-protein kinase BMX (Homo sapiens) (UniProt P51813).
T3 sequence (whole entry): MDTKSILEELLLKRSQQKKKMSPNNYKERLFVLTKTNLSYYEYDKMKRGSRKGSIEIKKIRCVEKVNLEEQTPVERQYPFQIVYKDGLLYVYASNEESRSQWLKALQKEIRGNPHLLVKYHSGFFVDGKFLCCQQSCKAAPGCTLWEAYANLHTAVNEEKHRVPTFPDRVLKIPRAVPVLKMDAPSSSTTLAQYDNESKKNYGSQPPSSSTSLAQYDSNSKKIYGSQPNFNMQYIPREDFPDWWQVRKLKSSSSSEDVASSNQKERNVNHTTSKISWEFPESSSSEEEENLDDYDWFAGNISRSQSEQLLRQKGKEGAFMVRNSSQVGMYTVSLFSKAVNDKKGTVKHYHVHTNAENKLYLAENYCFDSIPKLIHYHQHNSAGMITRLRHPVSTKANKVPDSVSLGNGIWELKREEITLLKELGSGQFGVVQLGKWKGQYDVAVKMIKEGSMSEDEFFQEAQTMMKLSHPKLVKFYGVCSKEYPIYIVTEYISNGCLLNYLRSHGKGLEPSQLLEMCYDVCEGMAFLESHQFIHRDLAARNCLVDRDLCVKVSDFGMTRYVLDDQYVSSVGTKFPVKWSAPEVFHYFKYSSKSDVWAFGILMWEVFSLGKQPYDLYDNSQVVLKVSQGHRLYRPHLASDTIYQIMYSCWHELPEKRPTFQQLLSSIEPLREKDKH
As to the kind of experiment: Induction of degradation of BMX in human Jurkat cells at 0.01 to 10 uM by immunoblotting analysis. Particulars: dose 0.01-10 µM. The data set is classed as cell-based.

Data set [8] in a line: Cmax in Balb/c mouse at 10 mg/kg, ip measured upto 24 hrs by LC-MS/MS analysis. The data set is classed as ADME, organism-based. The arrangement: dose 10 mg/kg, time < 24 hrs, route ip. Particulars: in vivo.
Data set [9] has as its target T1, Protein cereblon/Tyrosine-protein kinase ITK/TSK. As to the kind of experiment: PROTAC activity at CRBN/ITK in human Jurkat cells assessed as […] ITK degradation at 300 nM incubated for 8 hrs by tandem mass tag quantitative proteomic analysis. The data set is classed as cell-based.
Target sequence in this assay (Q08881 whole entry, looked up): as the sequence (Q08881 whole entry, looked up) above
Target sequence in this assay (Q96SW2 whole entry, looked up): as the sequence (Q96SW2 whole entry, looked up) above
Data set [10] can be described thus: Half life in Balb/c mouse at 5 mg/kg, iv measured upto 24 hrs by LC-MS/MS analysis. The format is ADME, organism-based. Particulars: in vivo.

Active and inactive are the calls of the source. No cut-off for these calls is given here.

In general, AUC(0-t) refers to the area under the concentration-time curve up to a stated or last time point. Low values mean less exposure, high ones more exposure. By bioavailability is commonly meant dose-corrected exposure relative to a reference, in per cent. High values mean good availability, low ones poor availability. A word on the DC50: it is the midpoint of the concentration-degradation curve. A word on the Cmax: it is the highest concentration seen after dosing. Usually half-life stands for the time in which the quantity being followed falls by half. Higher therefore signals slow decline.

Take `CN(CCCCCC(=O)Nc1ccc2c(c1)C(=O)N(C1CCC(=O)NC1=O)C2=O)CC[C@@H](c1ccccc1)n1cc(NC(=O)c2n[nH]c3c2CCC(C)(C)C3)cn1.O=C(O)C(F)(F)F` (stereo partly specified): the outcome (in [1]; in the data set with Jurkat; in data set [6]; in [7]) was inactive. In [2], the Vd is 12.9 L/kg. This compound had an AUC(0-t) at 24 h in [3] of 1080 ng·h/mL. This compound also gave a bioavailability in [4] of 73.5%. In addition, the DC50 in data set [5] turned out to be 6 nM. The compound also returned a Cmax in data set [8] of 1240 ng/mL. For the same compound, in data set [9], the result was Active. The same compound showed a half-life in data set [10] of 1.88 h.

Values taken from ChEMBL document CHEMBL5380833 (J Med Chem, 2023).
